Test results as given in patent publication US6632616B2, “Compounds that selectively bind to expanded polyglutamine repeat domains and methods of use thereof” (Duke University, priority 2000, dated 2003).

Tests used:
Q81-YFP = assay: Peptides added to transfected COS 7 cells expressing Q81-YFP: aggregation; format: cell-based; details: peptide added to cells
Description: (§1) Several proteins can ferry peptides or proteins into cells through the plasma membrane including HIV transactivator protein (TAT) (SEQ ID NO:37), antennapedia (SEQ ID NO:38), and herpes simplex virus type 1 protein 22 (SEQ ID NO:39) (Prochiantz, Curr Opin Cell Biol. 12:400-406 (2000)). […] The arginine-rich domains of these proteins are sufficient to transport some intact proteins even when fused to non-native proteins. The ability of polyglutamine-binding peptides fused to a TAT fragment to enter transfected COS 7 cells and inhibit polyglutamine aggregation and cell death was examined.

[1] = tested on: COS 7 cells expressing Q81-YFP; assay: Peptides added to transfected COS 7 cells expressing Q81-YFP: cell death; format: cell-based; details: peptide added to cells
Description: as §1

polyglutamine = assay: In vitro polyglutamine aggregation, polyarginine transport peptide; format: biochemical

Q81-YFP, sequence (as listed by the source): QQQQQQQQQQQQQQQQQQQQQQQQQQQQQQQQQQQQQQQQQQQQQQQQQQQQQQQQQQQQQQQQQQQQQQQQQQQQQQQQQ

WKWWPGIFD-GGRRRRRRRR (WKWWPGIFDGGRRRRRRRR)
inhibits: effect on aggregation in cells (in words) (Q81-YFP) | effect on cell death (in words) [1] | inhibition of in vitro polyglutamine aggregation (polyglutamine)
